Test results from patent US20050256037A1, “Antibacterial amide macrocyles” (Bayer HealthCare AG, priority 2003, published 2005).
≈ marks a conversion by molar mass, not a printed value. Counter-ions that a name gives are not always drawn.

Tests used:
[1] = target: S. aureus 133 Translation; experiment: S. aureus in vitro transcription-translation assay (S30 extract, firefly luciferase reporter); assay type: biochemical
Description: In vitro Transcription-Translation with S. aureus Extracts
Construction of an S. aureus Luciferase Reporter Plasmid
A reporter plasmid which can be used in an in vitro transcription-translation assay from S. aureus is constructed by using the plasmid pBESTluc (Promega Corporation, USA). The E. coli tac promoter present in this plasmid in front of the firefly luciferase is replaced by the capA1 promoter with appropriate Shine-Dalgarno sequence from S. aureus. The primers CAPFor 5′-CGGCCAAGCTTACTCGGAT-[…] […]-3′ and CAPRev 5′-[…]-3′ are used for this. The primer CAPFor contains the capA1 promoter, the ribosome binding site and the 5′ region of the luciferase gene. After PCR using pBESTluc as template it is possible to isolate a PCR product which contains the firefly luciferase gene with the fused capA1 promoter. This is, after restriction with ClaI and HindIII, ligated into the vector pBESTluc which has likewise been digested with ClaI and HindIII. The resulting plasmid pla is able to replicate in E. coli and be used as template in the S. aureus in vitro transcription-traslation assay.
Preparation of S30 Extracts from S. aureus
Six litres of BHI medium are inoculated with a 250 ml overnight culture of an S. aureus strain and allowed to grow at 37° C. until the OD600 run is 2-4. The cells are harvested by centrifugation and washed in 500 ml of cold buffer A (10 mM Tris acetate, pH 8.0, 14 mM Magnesium acetate, 1 mM DTT, 1 M KCl). After renewed centrifugation, the cells are washed in 250 ml of cold buffer A with 50 mM KCl, and the resulting pellets are frozen at −20° C. for 60 min. The pellets are thawed on ice in 30 to 60 min and taken up to a total volume of 99 ml in buffer B (10 mM Tris acetate, pH 8.0, 20 mM Magnesium acetate, 1 mM DTT, 50.mM KCl). 1.5 ml portions of lysostaphin (0.8 mg/ml) in buffer B are introduced into 3 precooled centrifuge cups and each mixed with 33 ml of the cell suspension. The samples are incubated at 37° C., shaking occasionally, for 45 to 60 min, before 150 μl of a 0.5 M DTT solution are added. The lysed cells are centrifuged at 30 000×g and 4° C. for 30 min. The cell pellet is taken up in buffer B and then centrifuged again under the same conditions, and the collected supernatants are combined. The supernatants are centrifuged again under the same conditions, and 0.25 volume of buffer C (670 mM Tris acetate, pH 8.0, 20 mM Magnesium acetate, 7 mM Na3 phosphoenolpyruvate, 7 mM DTT, 5.5 mM ATP, 70 μM amino acids (complete from Promega), 75 μg of pyruvate kinase (Sigma, Germany)/ml are added to the upper ⅔ of the supernatant. The samples are incubated at 37° C. for 30 min. The supernatants are dialysed against 2 l of dialysis buffer (10 mM Tris acetate, pH 8.0, 14 mM Magnesium acetate, 1 mM DTT, 60 mM Potassium acetate) in a dialysis tube with a 3500 Da cut-off with one buffer change at 4° C. overnight. The dialysate is concentrated to a protein concentration of about 10 mg/ml by covering the dialysis tube with cold PEG 8000 powder (Sigma, Germany) at 4° C. The S30 extracts can be stored in aliquots at −70° C.
Determination of the IC50 in the S. aureus in vitro Transcription-Translation Assay Inhibition of protein biosynthesis of the compounds can be shown in an in vitro transcription-translation assay. The assay is based on the cell-free transcription and translation of firefly luciferase using the reporter plasmid pla as template and cell-free S30 extracts obtained from S. aureus. The activity of the resulting luciferase can be detected by luminescence measurement.
The amount of S30 extract or plasmid pla to be employed must be tested anew for each preparation in order to ensure an optimal concentration in the assay. 3 μl of the substance to be tested, dissolved in 5% DMSO, are introduced into an MTP. Then 10 μl of a suitably concentrated plasmid solution pla are added. […]

S. aureus T17 = experiment: MIC, liquid dilution test in minimal medium (96-well microtitre plate); assay type: cell-based; details: Staphylococcus aureus, T17, read-out: MIC S. aureus T17
Description: Determination of the Minimum Inhibitory Concentration (MIC)
The minimum inhibitory concentration (MIC) is the minimum concentration of an antibiotic with which the growth of a test microbe is inhibited over 18-24 h. The inhibitor concentration can in these cases be determined by standard microbiological methods (see, for example, The National Committee for Clinical Laboratory Standards. Methods for dilution antimicrobial susceptibility tests for bacteria that grow aerobically; approved standard-fifth edition. NCCLS document M7-A5 [ISBN 1-56238-394-9]. NCCLS, 940 West Valley Road, Suite 1400, Wayne, Pa. 19087-1898 USA, 2000). The MIC of the compounds of the invention is determined in the liquid dilution test on the 96-well microtitre plate scale. The bacterial microbes are cultivated in a minimal medium (18.5 mM Na2HPO4, 5.7 mM KH2PO4, 9.3 mM NH4Cl, 2.8 mM MgSO4, 17.1 mM NaCl, 0.033 μg/ml thiamine hydrochloride, 1.2 μg/ml nicotinic acid, 0.003 μg/ml biotin, 1% glucose, 25 μg/ml of each proteinogenic amino acid with the exception of phenylalanine; [H.-P. Kroll; unpublished]) with addition of 0.4% BH broth (test medium). In the case of Enterococcus faecium L4001, heat-inactivated fetal calf serum (FCS; GibcoBRL, Germany) is added to the test medium in a final concentration of 10%. Overnight cultures of the test microbes are diluted to an OD578 of 0.001 (to 0.01 in the case of enterococci) in fresh test medium, and incubated 1:1 with dilutions of the test substances (1:2 dilution steps) in test medium (200 μl final volume). The cultures are incubated at 37° C. for 18-24 hours; enterococci in the presence of 5% CO2.
The lowest substance concentration in each case at which bacterial growth was no longer visible is defined as the MIC. […] The compounds show a graded antibacterial effect against most of the test microbes.
The S. aureus strain T17 is isolated in vivo. CFW1 mice are infected intraperitoneally with 4×10^7 S. aureus 133 cells per mouse. 0.5 h after the infection, the animals are treated intravenously with 50 mg/kg biphenomycin B. The kidneys are removed from the surviving animals on day 3 after the infection. After homogenization of the organs, the homogenates are plated out as described for RN4220Bi^R on antibiotic-free and antibiotic-containing agar plates and incubated at 37° C. overnight. […] About 20 of these colonies are tested for the biphenomycin B MIC, and a colony with an MIC of >50 μM is selected for further cultivation, and the strain is referred to a T17.

CN1C(=O)[C@H](C[C@@H](O)CN)NC(=O)[C@@H](N)Cc2cc(ccc2O)-c2ccc(O)c(c2)C[C@H]1C(=O)NCCN [Example 1, (8S,11S,14S)-14-amino-N-(2-aminoethyl)-11-[(2R)-3-amino-2-hydroxypropyl]-5,17-dihydroxy-9-methyl-10,13-dioxo-9,12-diazatricyclo[14.3.1.1.^2,6]henicosa-1(20),2(21),3,5,16,18-hexaene-8-carboxamide, trihydrochloride]
IC50 ([1]; Table A): 100 nM | IC50 ([1]; Table B): 100 nM | MIC (S. aureus T17): 3.1 µM

NCCC[C@@H]1NC(=O)[C@@H](N)Cc2cc(ccc2O)-c2ccc(O)c(c2)C[C@@H](C(=O)NCCN)NC1=O [Example 6, (8S,11S,14S)-14-amino-N-(2-aminoethyl)-11-(3-aminopropyl)-5,17-dihydroxy-10,1 3-dioxo-9,12-diazatricyclo[14.3.1.1^2,6]henicosa-1(20),2(21),3,5,16,18-hexaene-8-carboxamide]
IC50 ([1]; Table A): 500 nM | IC50 ([1]; Table B): 500 nM | MIC (S. aureus T17): 3.1 µM (≈ 1.55 µg/mL)

NC[C@H](O)C[C@@H]1NC(=O)[C@@H](N)Cc2cc(ccc2O)-c2ccc(O)c(c2)C[C@@H](C(=O)O)NC1=O [Example 20A, 14(S)-Amino-1(S)-(3-amino-2(R)-hydroxypropyl)-5,17-dihydroxy-10,13-dioxo-9,12-diazatricyclo[14.3.1.1^2,6]henicosa-1(19),2,4,6(21),16(20),17-hexaene-8(S)-carboxylic acid dihydrochloride, reference compound]
IC50 ([1]; Table A): 1500 nM | IC50 ([1]; Table B): 1500 nM | MIC (S. aureus T17): > 25 µM
